Results as given in US10206937B2, “Boronic acid derivatives and therapeutic uses thereof” (Qpex Biopharma, Inc., priority 2014, dated 2019).

Test system: strains of Enterobacteriaceae producing various carbapenemases (class A, D and B; 169 strains)
Assay: Meropenem or tebipenem potentiation by Compounds 97 or 62 (MIC)
Format: cell-based
Method: The largest panel of clinical isolates expressing class A, D and B carbapenemases alone or in combination with other beta-lactamases (169 strains) was used to evaluate carbapenem potentiation activity of Compounds 97 and 62. MIC for meropenem and tebipenem of these strains were determined either alone or in the presence of Compounds 97 or 62, respectively, at a fixed concentration of 8 μg/ml in the growth media.

SMILES: C[C@@H](O)[C@H]1C(=O)N2C(C(=O)O)=C(S[C@@H]3CN[C@H](C(=O)N(C)C)C3)[C@H](C)[C@H]12 [M]
- Meropenem MIC alone (M) (CF1022 Citrobacter freundii SHV-12(2be), TEM-OSBL(2b), IMP-8): Y (MIC of 1 μg/mL to 10 μg/mL)
- Meropenem MIC alone (M) (CF1023 Citrobacter freundii SHV-12(2be), TEM-OSBL(2b), CTX-M-3, CMY-34, NDM-1): Z (MIC of greater than 10 μg/mL)
- Meropenem MIC alone (M) (EC1061 Escherichia coli NDM-1, CMY-6): Z (MIC of greater than 10 μg/mL)
- Meropenem MIC alone (M) (EC1069 Escherichia coli CTX-M-27, NDM-1): Z (MIC of greater than 10 μg/mL)
- Meropenem MIC alone (M) (EC1070 Escherichia coli TEM-OSBL(2b), CMY-42, NDM-5): Z (MIC of greater than 10 μg/mL)
- Meropenem MIC alone (M) (EC1072 Escherichia coli CTX-M-3, NDM-1): Z (MIC of greater than 10 μg/mL)
- Meropenem MIC alone (M) (ECL1045 Enterobacter cloacae VIM-1): Z (MIC of greater than 10 μg/mL)
- Meropenem MIC alone (M) (ECL1055 Enterobacter cloacae KPC-3, TEM): Y (MIC of 1 μg/mL to 10 μg/mL)
- Meropenem MIC alone (M) (ECL1057 Enterobacter cloacae NDM-1, TEM-1, CTX-M-15): Z (MIC of greater than 10 μg/mL)
- Meropenem MIC alone (M) (ECL1084 Enterobacter cloacae CTX-M-15, ACT-16, NDM-1): Z (MIC of greater than 10 μg/mL)
- Meropenem MIC alone (M) (ECL1085 Enterobacter cloacae SHV-31(2be), TEM-1(2b), CTX-M-15, NDM-1): Z (MIC of greater than 10 μg/mL)
- Meropenem MIC alone (M) (ECL1087 Enterobacter cloacae VIM-1): Z (MIC of greater than 10 μg/mL)
- Meropenem MIC alone (M) (ECL1090 Enterobacter cloacae TEM-1(2b), CTX-M-22, ACT-type, IMP-8): Y (MIC of 1 μg/mL to 10 μg/mL)
- Meropenem MIC alone (M) (ECL1092 Enterobacter cloacae TEM-OSBL(2b), ACT-32, VIM-1): Y (MIC of 1 μg/mL to 10 μg/mL)
- Meropenem MIC alone (M) (ECL1093 Enterobacter cloacae TEM-OSBL(2b), ACT-32, VIM-1): Y (MIC of 1 μg/mL to 10 μg/mL)
- Meropenem MIC alone (M) (ECL1094 Enterobacter cloacae VIM-1): Z (MIC of greater than 10 μg/mL)
- Meropenem MIC alone (M) (ECL1095 Enterobacter cloacae SHV-12(2be), TEM-OSBL(2b), CMY-4, ACT-16, VIM-4, OXA-48(c)): Z (MIC of greater than 10 μg/mL)
- Meropenem MIC alone (M) (ECL1096 Enterobacter cloacae CMY-4, VIM-4, OXA-48(c)): Z (MIC of greater than 10 μg/mL)
- Meropenem MIC alone (M) (ECL1097 Enterobacter cloacae SHV-31(2be), TEM-OSBL(2b), CTX-M-15, ACT-31, NDM-1): Z (MIC of greater than 10 μg/mL)
- Meropenem MIC alone (M) (ECL1098 Enterobacter cloacae TEM-OSBL(2b), DHA-1, ACT-16, NDM-1): Z (MIC of greater than 10 μg/mL)
- Meropenem MIC alone (M) (KP1054 Klebsiella pneumoniae VIM-1, SHV-11): Y (MIC of 1 μg/mL to 10 μg/mL)
- Meropenem MIC alone (M) (KP1059 Klebsiella pneumoniae VIM-1, SHV-11): Z (MIC of greater than 10 μg/mL)
- Meropenem MIC alone (M) (KP1061 Klebsiella pneumoniae KPC-3, TEM-1, SHV-11): Z (MIC of greater than 10 μg/mL)
- Meropenem MIC alone (M) (KP1064 Klebsiella pneumoniae KPC-2, TEM-1, SHV-11): Z (MIC of greater than 10 μg/mL)
- Meropenem MIC alone (M) (KP1065 Klebsiella pneumoniae VIM-1, SHV-11): Y (MIC of 1 μg/mL to 10 μg/mL)
- Meropenem MIC alone (M) (KP1070 Klebsiella pneumoniae KPC-2, SHV-11, TEM-1): Z (MIC of greater than 10 μg/mL)
- Meropenem MIC alone (M) (KP1074 Klebsiella pneumoniae KPC-3, SHV-11, TEM): Z (MIC of greater than 10 μg/mL)
- Meropenem MIC alone (M) (KP1081 Klebsiella pneumoniae NDM-1, TEM-1, SHV-11, CMY-6, CTX-M-15): Z (MIC of greater than 10 μg/mL)
- Meropenem MIC alone (M) (KP1158 Klebsiella pneumoniae KPC-2, VIM-1): Z (MIC of greater than 10 μg/mL)
- Meropenem MIC alone (M) (KP1159 Klebsiella pneumoniae SHV-1(2b), CTX-M-15, IMP-4): Z (MIC of greater than 10 μg/mL)
- Meropenem MIC alone (M) (KP1160 Klebsiella pneumoniae SHV-28(2be), CTX-M-15, IMP-26): Z (MIC of greater than 10 μg/mL)
- Meropenem MIC alone (M) (KP1161 Klebsiella pneumoniae NDM-1): Z (MIC of greater than 10 μg/mL)
- Meropenem MIC alone (M) (KP1162 Klebsiella pneumoniae SHV-1(2b), CTX-M-15, IMP-4): Z (MIC of greater than 10 μg/mL)
- Meropenem MIC alone (M) (KP1163 Klebsiella pneumoniae SHV-11(2b), MOX-1, KPC-2, VIM-1): Z (MIC of greater than 10 μg/mL)
- Meropenem MIC alone (M) (KP1164 Klebsiella pneumoniae SHV-12(2be), VIM-1): Z (MIC of greater than 10 μg/mL)
- Meropenem MIC alone (M) (KP1165 Klebsiella pneumoniae SHV-11(2b), CTX-M-15, VIM-27): Z (MIC of greater than 10 μg/mL)
- Meropenem MIC alone (M) (KP1166 Klebsiella pneumoniae SHV-5(2be), VIM-26): Z (MIC of greater than 10 μg/mL)
- Meropenem MIC alone (M) (KP1168 Klebsiella pneumoniae SHV-11(2b), CTX-M-15, VIM-27): Z (MIC of greater than 10 μg/mL)
- Meropenem MIC alone (M) (KP1169 Klebsiella pneumoniae SHV-11(2b), VIM-1): Z (MIC of greater than 10 μg/mL)
- Meropenem MIC alone (M) (KP1170 Klebsiella pneumoniae SHV-11(2b), CTX-M-15, NDM-1): Z (MIC of greater than 10 μg/mL)
- Meropenem MIC alone (M) (KP1172 Klebsiella pneumoniae SHV-31(2be), DHA-1, VIM-1): Z (MIC of greater than 10 μg/mL)
- Meropenem MIC alone (M) (KP1173 Klebsiella pneumoniae TEM-33(2br), CTX-M-15, IMP-1): Y (MIC of 1 μg/mL to 10 μg/mL)
- Meropenem MIC alone (M) (KP1174 Klebsiella pneumoniae CTX-M-14, IMP-1): Y (MIC of 1 μg/mL to 10 μg/mL)
- Meropenem MIC alone (M) (KP1175 Klebsiella pneumoniae SHV-OSBL(2b), VIM-1): Z (MIC of greater than 10 μg/mL)
- Meropenem MIC alone (M) (KP1176 Klebsiella pneumoniae SHV-12(2be), TEM-OSBL(2b), CMY-13, KPC-2, VIM-1): Z (MIC of greater than 10 μg/mL)
- Meropenem MIC alone (M) (KP1177 Klebsiella pneumoniae SHV-OSBL(2b), TEM-OSBL(2b), CTX-M-15, NDM-1): Z (MIC of greater than 10 μg/mL)
- Meropenem MIC alone (M) (KP1178 Klebsiella pneumoniae SHV-OSBL(2b), TEM-OSBL(2b), CTX-M-15, NDM-1): Z (MIC of greater than 10 μg/mL)
- Meropenem MIC alone (M) (KP1179 Klebsiella pneumoniae SHV-12(2be), TEM-OSBL(2b), CTX-M-15, NDM-7): Z (MIC of greater than 10 μg/mL)
- Meropenem MIC alone (M) (KP1180 Klebsiella pneumoniae SHV-OSBL(2b), TEM-OSBL(2b), CTX-M-15, DHA-1, IMP-26): Y (MIC of 1 μg/mL to 10 μg/mL)
- Meropenem MIC alone (M) (KP1181 Klebsiella pneumoniae SHV-OSBL(2b), CTX-M-15, IMP-26): Z (MIC of greater than 10 μg/mL)
